Reference: patent publication US20260234159A1, “SMALL MOLECULE TREATMENT OF FATTY LIVER DISEASE AND HCC” (SCANDIEDGE THERAPEUTICS AB, priority 2023, published 2026)

Columns and labels:
JNK1/2/3 = test: Western blot, JNK1/2/3 P54 and p46 isoforms; format: cell-based, human; details: 10 μM, 2 days
Experimental: HepG2 cells were seeded into a 6-well plate at 400,000 cells per well. After treatment with 10 μM of JNK-IN-5A and its derivatives for two days, lysates were harvested with CelLytic M (C2978, Sigma-Aldrich). […] SDS PAGE were performed using Mini-PROTEAN® TGX™ Precast Gels (Bio-Rad) and transferred using Trans-Blot® Turbo™ Transfer System (Bio-Rad). […] ImageQuantTMLAS 500 (29-0050-63, GE) was used to detect protein bands.

HepG2 cells = test: Wound healing assay; format: cell-based; details: Homo sapiens, HepG2, 96 h, day 4, untreated 100% wound closure, read-out: wound healing delayed by
Method in brief: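 HepG2 monolayers grown to 95-100% confluence were scratched with a pipette tip and treated with compounds at 1 μM. Wounds were imaged from day 0 until closure in the control group, and wound area was measured from the images.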

[1] = In vivo toxicological study in rats: plasma chemistry; design: species or system rats of the Wistar strain
Experimental: Forty-two male and forty-two female rats of the Wistar strain were allocated to the study. Three groups of three males and three females were given doses of 30, 100 and 300 mg/kg of target compounds (Table 8). The vehicle was 1.5 w/w % HPMC, 1.5 w/w % PS80 in 10 mM PBS, pH 7 and dose volume were 5 mL/kg. The animals were acclimatised at least 14 day prior to the study and exposed to a 12 hours light, 12 hours dark light cycle. The formulations were administered via oral gavage. Administration occurred once daily in the morning for seven consecutive days. Blood for scheduled haematology and plasma chemistry were taken at necropsy. For plasma chemistry, 0.6 ml blood (lithium heparin) per animal and for haematology, 0.5 ml blood (K2EDTA) per animal. The blood and plasma were analysed using Exigo analyzer and Vetscan equipment. Blood samples were kept in room temperature […] after collection and mixing. The blood samples were analysed as whole blood within 60 min of collection. The VetScan analyser was calibrated with calibration samples of known plasma levels of each parameter before start of analysis, occasionally during the analysis period of study samples and after completed analyses (Table 10).

[2] = female, 30 mg/kg oral daily 7 d
[3] = female, 100 mg/kg oral daily 7 d
[4] = female, 300 mg/kg oral daily 7 d

For `N#Cc1c(NC(=O)c2cccc3ccccc23)sc2c1CCCC2` [JNK-IN-5A, N-(3-cyano-4,5,6,7-tetrahydrobenzo[b]thiophen-2-yl)-1-naphthamide], the “JNK1/2/3 p46 expression” value (JNK1/2/3) was 0.88 times and the inhibition at 1 µM (HepG2 cells) was 32.7%.

With `COc1ccccc1NC(=O)N1CCc2c(sc(NC(=O)c3cccc4ccccc34)c2C#N)C1` [PKL-A152] the ALB [1, 2] was 56 g/L, the ALP [1, 2] was 84 U/L and the ALT [1, 2] was 23 U/L. It also gave an AMY [1, 2] of 548 U/L, a BUN [1, 2] of 4.9 mmol/L and a CA [1, 2] of 2.90 mmol/L. It also gave a CRE [1, 2] of 44 µmol/L, a GLOB [1, 2] of 7 g/L and a GLU [1, 2] of 8.0 mmol/L. The “K+” value [1, 2] was 2.9 mmol/L, the “NA+” value [1, 2] was 148 mmol/L and the PHOS [1, 2] was 2.28 mmol/L. The TBIL [1, 2] was 4.0 µmol/L, the TP [1, 2] was 64 g/L and the ALB [1, 3] was 58 g/L. It also gave an ALP [1, 3] of 162 U/L, an ALT [1, 3] of 20 U/L and an AMY [1, 3] of 573 U/L. The BUN [1, 3] was 6.0 mmol/L, the CA [1, 3] was 2.87 mmol/L and the CRE [1, 3] was 48 µmol/L. The GLOB [1, 3] was 8 g/L, the GLU [1, 3] was 7.8 mmol/L and the “K+” value [1, 3] was 4.5 mmol/L. The “NA+” value [1, 3] was 139 mmol/L, the PHOS [1, 3] was 2.38 mmol/L and the TBIL [1, 3] was 4.7 µmol/L. The TP [1, 3] was 66 g/L, the ALB [1, 4] was 56 g/L and the ALP [1, 4] was 134 U/L. For the same molecule, the ALT [1, 4] was 21 U/L, the AMY [1, 4] was 539 U/L and the BUN [1, 4] was 5.2 mmol/L. The CA [1, 4] was 2.92 mmol/L, the CRE [1, 4] was 51 µmol/L and the GLOB [1, 4] was 8 g/L. The GLU [1, 4] was 7.7 mmol/L, the “K+” value [1, 4] was 4.8 mmol/L and the “NA+” value [1, 4] was 140 mmol/L. For the same molecule, the PHOS [1, 4] was 2.39 mmol/L, the TBIL [1, 4] was 4.7 µmol/L and the TP [1, 4] was 64 g/L. For the same molecule, the ALB ([1]; male, 30 mg/kg oral daily 7 d) was 50 g/L, the ALP ([1]; male, 30 mg/kg oral daily 7 d) was 272 U/L and the ALT ([1]; male, 30 mg/kg oral daily 7 d) was 30 U/L. For the same molecule, the AMY ([1]; male, 30 mg/kg oral daily 7 d) was 837 U/L, the BUN ([1]; male, 30 mg/kg oral daily 7 d) was 5.7 mmol/L and the CA ([1]; male, 30 mg/kg oral daily 7 d) was 2.99 mmol/L. It also gave a CRE ([1]; male, 30 mg/kg oral daily 7 d) of 42 µmol/L, a GLOB ([1]; male, 30 mg/kg oral daily 7 d) of 13 g/L and a GLU ([1]; male, 30 mg/kg oral daily 7 d) of 8.0 mmol/L. For the same molecule, the “K+” value ([1]; male, 30 mg/kg oral daily 7 d) was 4.6 mmol/L, the “NA+” value ([1]; male, 30 mg/kg oral daily 7 d) was 140 mmol/L and the PHOS ([1]; male, 30 mg/kg oral daily 7 d) was 2.11 mmol/L. For the same molecule, the TBIL ([1]; male, 30 mg/kg oral daily 7 d) was 4.0 µmol/L, the TP ([1]; male, 30 mg/kg oral daily 7 d) was 63 g/L and the ALB ([1]; male, 100 mg/kg oral daily 7 d) was 51 g/L. It also gave an ALP ([1]; male, 100 mg/kg oral daily 7 d) of 267 U/L, an ALT ([1]; male, 100 mg/kg oral daily 7 d) of 25 U/L and an AMY ([1]; male, 100 mg/kg oral daily 7 d) of 838 U/L. For the same molecule, the BUN ([1]; male, 100 mg/kg oral daily 7 d) was 5.7 mmol/L, the CA ([1]; male, 100 mg/kg oral daily 7 d) was 2.98 mmol/L and the CRE ([1]; male, 100 mg/kg oral daily 7 d) was 42 µmol/L. The GLOB ([1]; male, 100 mg/kg oral daily 7 d) was 12 g/L, the GLU ([1]; male, 100 mg/kg oral daily 7 d) was 8.2 mmol/L and the “K+” value ([1]; male, 100 mg/kg oral daily 7 d) was 4.7 mmol/L. The “NA+” value ([1]; male, 100 mg/kg oral daily 7 d) was 141 mmol/L, the PHOS ([1]; male, 100 mg/kg oral daily 7 d) was 2.57 mmol/L and the TBIL ([1]; male, 100 mg/kg oral daily 7 d) was 5.0 µmol/L. For the same molecule, the TP ([1]; male, 100 mg/kg oral daily 7 d) was 63 g/L, the ALB ([1]; male, 300 mg/kg oral daily 7 d) was 49 g/L and the ALP ([1]; male, 300 mg/kg oral daily 7 d) was 244 U/L. It also gave an ALT ([1]; male, 300 mg/kg oral daily 7 d) of 28 U/L, an AMY ([1]; male, 300 mg/kg oral daily 7 d) of 854 U/L and a BUN ([1]; male, 300 mg/kg oral daily 7 d) of 5.5 mmol/L. For the same molecule, the CA ([1]; male, 300 mg/kg oral daily 7 d) was 3.04 mmol/L, the CRE ([1]; male, 300 mg/kg oral daily 7 d) was 51 µmol/L and the GLOB ([1]; male, 300 mg/kg oral daily 7 d) was 14 g/L. For the same molecule, the GLU ([1]; male, 300 mg/kg oral daily 7 d) was 8.6 mmol/L, the “K+” value ([1]; male, 300 mg/kg oral daily 7 d) was 4.5 mmol/L and the “NA+” value ([1]; male, 300 mg/kg oral daily 7 d) was 143 mmol/L. It also gave a PHOS ([1]; male, 300 mg/kg oral daily 7 d) of 2.47 mmol/L, a TBIL ([1]; male, 300 mg/kg oral daily 7 d) of 4.7 µmol/L and a TP ([1]; male, 300 mg/kg oral daily 7 d) of 63 g/L.
